Experimental findings from patent publication US12227482B2, “Compounds and compositions for the treatment of cancer” (The Regents of the University of California, priority 2016, dated 2025) are described below.

A word on the IC50: it is the concentration that gives 50% inhibition.

Holding throughout (format): cell-based
One assay concerns A549 cells. The experiment in a line: Cell viability (CellTiter-Glo ATP content) in A549 cells. Particulars: Homo sapiens, A549, 72 h, 72 hours treatment, cell survival by CellTiter-Glo, 2% fetal bovine serum. The method, boiled down:
(§1)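 Cells plated at 5,000 per well in antibiotic-free RPMI with 2% FBS, treated next day in triplicate with increasing compound doses (final DMSO 0.5%) for 72 hours. Viability read as ATP content by CellTiter-Glo luminescence; percent survival relative to vehicle control set as 100%.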
In general terms: In ATP-based viability assays light output follows the ATP content of the culture.

The test system of another assay is LOX cells. Kind of assay: Cell viability (CellTiter-Glo ATP content) in LOX cells. Conditions: LOX, 72 h, 72 hours treatment, cell survival by CellTiter-Glo, 2% fetal bovine serum. The essentials:
as §1

In another assay the test system is MelJuSo cells. Kind of assay: Cell viability (CellTiter-Glo ATP content) in MelJuSo cells. Particulars: Homo sapiens, MEL-JUSO, 72 hours treatment, cell survival by CellTiter-Glo, 2% fetal bovine serum. The method, boiled down: as §1

Consider `CCCCC1C(c2ccc(F)cc2)=NN(c2ccccc2)C1(C)C(=O)NC(C)c1ccc(S(C)(=O)=O)cc1` (stereo not drawn) [Compound 69, 4-butyl-3-(4-fluorophenyl)-5-methyl-N-(1-(4-(methylsulfonyl)phenyl)ethyl)-1-phenyl-4,5-dihydro-1H-pyrazole-5-carboxamide], for which the IC50 in the assay on A549 cells, in the assay on LOX cells and with MelJuSo cells was above 2 µM in each case.
In the case of `CCCCC1C(c2ccc(F)cc2)=NN(c2ccccc2)C1(C)C(=O)NCCF` (stereo not drawn) [Compound 70, 4-butyl-N-(2-fluoroethyl)-3-(4-fluorophenyl)-5-methyl-1-phenyl-4,5-dihydro-1H-pyrazole-5-carboxamide], the IC50 was above 2 µM in the assay on A549 cells, 1 to 2 µM in the assay with LOX cells and 0.5 to 1 µM in the assay with MelJuSo cells.
The corresponding values for `CCCCC1C(c2ccc(F)cc2)=NN(c2ccccc2)C1(C)C(=O)NCCCN1CCCCC1` (stereo not drawn) [Compound 71, 4-butyl-3-(4-fluorophenyl)-5-methyl-1-phenyl-N-(3-(piperidin-1-yl)propyl)-4,5-dihydro-1H-pyrazole-5-carboxamide] are above 2 µM, above 2 µM and above 2 µM.
The corresponding values for `CCCCC1C(c2ccc(F)cc2)=NN(c2ccccc2)C1(C)C(=O)NCC(C)(C)C` (stereo not drawn) [Compound 72, 4-butyl-3-(4-fluorophenyl)-5-methyl-N-neopentyl-1-phenyl-4,5-dihydro-1H-pyrazole-5-carboxamide] are above 2 µM, above 2 µM and above 2 µM.
The corresponding values for `CCCCC1C(c2ccc(F)cc2)=NN(c2ccccc2)C1(C)C(=O)NCC1CC1` (stereo not drawn) [Compound 73, 4-butyl-N-(cyclopropylmethyl)-3-(4-fluorophenyl)-5-methyl-1-phenyl-4,5-dihydro-1H-pyrazole-5-carboxamide] are above 2 µM, 1 to 2 µM and 1 to 2 µM.
With `CCCCC1C(c2ccc(F)cc2)=NN(c2ccccc2)C1(C)C(=O)NCC(C)(C)N(C)C` (stereo not drawn) [Compound 74, 4-butyl-N-(2-(dimethylamino)-2-methylpropyl)-3-(4-fluorophenyl)-5-methyl-1-phenyl-4,5-dihydro-1H-pyrazole-5-carboxamide], the IC50 with A549 cells, with LOX cells and with MelJuSo cells was above 2 µM in each case.
Take `CCCCC1C(c2ccc(F)cc2)=NN(c2ccccc2)C1(C)C(=O)NCCC(C)N(C)C` (stereo not drawn) [Compound 75, 4-butyl-N-(3-(dimethylamino)butyl)-3-(4-fluorophenyl)-5-methyl-1-phenyl-4,5-dihydro-1H-pyrazole-5-carboxamide]: the IC50 with A549 cells is 0.5 to 1 µM; in the assay with LOX cells, above 2 µM; with MelJuSo cells, above 2 µM.
Take `CCCCC1C(c2ccc(F)cc2)=NN(c2ccccc2)C1(C)C(=O)NCC(C)N(C)C` (stereo not drawn) [Compound 76, 4-butyl-N-(2-(dimethylamino)propyl)-3-(4-fluorophenyl)-5-methyl-1-phenyl-4,5-dihydro-1H-pyrazole-5-carboxamide]: the concentration for half-maximal inhibition (IC50) in the assay on A549 cells, in the assay on LOX cells and in the assay on MelJuSo cells was above 2 µM each time.
As for `CCCCC1C(c2ccc(F)cc2)=NN(c2ccccc2)C1(C)C(=O)NCC(C)CN(C)C` (stereo not drawn) [Compound 77, 4-butyl-N-(3-(dimethylamino)-2-methylpropyl)-3-(4-fluorophenyl)-5-methyl-1-phenyl-4,5-dihydro-1H-pyrazole-5-carboxamide], the IC50 with A549 cells was 0.25 to 0.5 µM; with LOX cells, above 2 µM; with MelJuSo cells, above 2 µM.
Take `CCCCC1C(c2ccc(F)cc2)=NN(c2ccccc2)C1(C)C(=O)N(CCO)Cc1ccccc1` (stereo not drawn) [Compound 78, N-benzyl-4-butyl-3-(4-fluorophenyl)-N-(2-hydroxyethyl)-5-methyl-1-phenyl-4,5-dihydro-1H-pyrazole-5-carboxamide]: the IC50 in the assay on A549 cells, in the assay with LOX cells and with MelJuSo cells was above 2 µM each time.
On to `CCCCC1C(c2ccc(F)cc2)=NN(c2ccccc2)C1(C)C(=O)NCCS(C)(=O)=O` (stereo not drawn) [Compound 79, 4-butyl-3-(4-fluorophenyl)-5-methyl-N-(2-(methylsulfonyl)ethyl)-1-phenyl-4,5-dihydro-1H-pyrazole-5-carboxamide], for which the half-maximal inhibitory concentration (IC50) in the assay on A549 cells, in the assay on LOX cells and with MelJuSo cells was above 2 µM in each case.
In the case of `CCCCC1C(c2ccc(F)cc2)=NN(c2ccccc2)C1(C)C(=O)NCc1ccc(CN2CCOCC2)cc1` (stereo not drawn) [Compound 80, 4-butyl-3-(4-fluorophenyl)-5-methyl-N-(4-(morpholinomethyl)benzyl)-1-phenyl-4,5-dihydro-1H-pyrazole-5-carboxamide], the IC50 in the assay on A549 cells, with LOX cells and in the assay on MelJuSo cells was above 2 µM in each case.
With `CCCCC1C(c2ccc(F)cc2)=NN(c2ccc(F)cc2F)C1(C)C(=O)NCC(=O)OC` (stereo not drawn) [Compound 81, methyl 2-(4-butyl-1-(2,4-difluorophenyl)-3-(4-fluorophenyl)-5-methyl-4,5-dihydro-1H-pyrazole-5-carboxamido)acetate], the results for the IC50 in the assay on A549 cells, with LOX cells and with MelJuSo cells were 0.5 to 1 µM, 0.5 to 1 µM and below 0.25 µM, respectively.
With `CCCCC1C(c2ccc(F)cc2)=NN(c2ccc(F)cc2F)C1(C)C(=O)NCC(=O)O` (stereo not drawn) [Compound 82, 2-(4-butyl-1-(2,4-difluorophenyl)-3-(4-fluorophenyl)-5-methyl-4,5-dihydro-1H-pyrazole-5-carboxamido)acetic acid], the IC50 with A549 cells, in the assay on LOX cells and in the assay on MelJuSo cells was above 2 µM in each case.
In the case of `CCCCC1C(c2ccc(F)cc2)=NN(c2ccc(F)cc2F)C1(C)C(=O)NCCC#N` (stereo not drawn) [Compound 83, 4-butyl-N-(2-cyanoethyl)-1-(2,4-difluorophenyl)-3-(4-fluorophenyl)-5-methyl-4,5-dihydro-1H-pyrazole-5-carboxamide], the IC50 in the assay on A549 cells is 1 to 2 µM; with LOX cells, 1 to 2 µM; with MelJuSo cells, 0.5 to 1 µM.
`CCCCC1C(c2ccc(F)cc2)=NN(c2ccc(F)cc2F)C1(C)C(=O)NCCO` (stereo not drawn) [Compound 84, 4-butyl-1-(2,4-difluorophenyl)-3-(4-fluorophenyl)-N-(2-hydroxyethyl)-5-methyl-4,5-dihydro-1H-pyrazole-5-carboxamide]: the results for the IC50 with A549 cells, in the assay on LOX cells and with MelJuSo cells were 1 to 2 µM, 1 to 2 µM and 0.5 to 1 µM, respectively.
On to `CC(C)(CO)CCCNC(=O)C1(C)C(c2ccsc2)C(c2ccc(F)cc2)=NN1c1ccc(F)cc1F` (stereo not drawn) [Compound 85, 1-(2,4-difluorophenyl)-3-(4-fluorophenyl)-N-(5-hydroxy-4,4-dimethylpentyl)-5-methyl-4-(thiophen-3-yl)-4,5-dihydro-1H-pyrazole-5-carboxamide], for which the IC50 is 0.25 to 0.5 µM in the assay with A549 cells, below 0.25 µM with LOX cells and below 0.25 µM in the assay with MelJuSo cells.
Consider `COCCNC(=O)C1(C)C(c2ccsc2)C(c2ccc(F)cc2)=NN1c1ccc(F)cc1F` (stereo not drawn) [Compound 86, 1-(2,4-difluorophenyl)-3-(4-fluorophenyl)-N-(2-methoxyethyl)-5-methyl-4-(thiophen-3-yl)-4,5-dihydro-1H-pyrazole-5-carboxamide], for which the IC50 in the assay with A549 cells, with LOX cells and with MelJuSo cells was below 0.25 µM throughout.
As to `CCCCC1(C)C(c2ccc(F)cc2)=NN(c2ccc(F)cc2F)C1(C)C(=O)NCCCC(C)(C)CO` (stereo not drawn) [Compound 87, 4-butyl-1-(2,4-difluorophenyl)-3-(4-fluorophenyl)-N-(5-hydroxy-4,4-dimethylpentyl)-4,5-dimethyl-4,5-dihydro-1H-pyrazole-5-carboxamide], the IC50 in the assay on A549 cells, with LOX cells and in the assay on MelJuSo cells was above 2 µM in each case.
With `CCCCC1(C)C(c2ccc(F)cc2)=NN(c2ccc(F)cc2F)C1(C)C(=O)NCCOC` (stereo not drawn) [Compound 88, 4-butyl-1-(2,4-difluorophenyl)-3-(4-fluorophenyl)-N-(2-methoxyethyl)-4,5-dimethyl-4,5-dihydro-1H-pyrazole-5-carboxamide], the IC50 with A549 cells, in the assay with LOX cells and in the assay on MelJuSo cells was above 2 µM each time.
Consider `CCCCC1C(c2ccc(F)cc2F)=NN(c2ccc(F)cc2F)C1(C)C(=O)NCCCC(C)(C)CO` (stereo not drawn) [Compound 89, 4-butyl-1,3-bis(2,4-difluorophenyl)-N-(5-hydroxy-4,4-dimethylpentyl)-5-methyl-4,5-dihydro-1H-pyrazole-5-carboxamide], for which the concentration for half-maximal inhibition (IC50) in the assay on A549 cells fell in the range of 1 to 2 µM; with LOX cells it was 0.5 to 1 µM; in the assay on MelJuSo cells, 0.5 to 1 µM.
On to `CCCCC1C(c2ccc(F)cc2F)=NN(c2ccc(F)cc2F)C1(C)C(=O)NCCOC` (stereo not drawn) [Compound 90, 4-butyl-1,3-bis(2,4-difluorophenyl)-N-(2-methoxyethyl)-5-methyl-4,5-dihydro-1H-pyrazole-5-carboxamide], for which the IC50 is 0.5 to 1 µM in the assay on A549 cells, 0.5 to 1 µM in the assay with LOX cells and below 0.25 µM in the assay with MelJuSo cells.
With `CC(C)(CO)CCCNC(=O)C1(C)C(c2ccco2)C(c2ccc(F)cc2)=NN1c1ccc(F)cc1F` (stereo not drawn) [Compound 91, 1-(2,4-difluorophenyl)-3-(4-fluorophenyl)-4-(furan-2-yl)-N-(5-hydroxy-4,4-dimethylpentyl)-5-methyl-4,5-dihydro-1H-pyrazole-5-carboxamide], the IC50 with A549 cells is 0.25 to 0.5 µM; with LOX cells, 0.25 to 0.5 µM; in the assay with MelJuSo cells, below 0.25 µM.
Turning to `COCCNC(=O)C1(C)C(c2ccco2)C(c2ccc(F)cc2)=NN1c1ccc(F)cc1F` (stereo not drawn) [Compound 92, 1-(2,4-difluorophenyl)-3-(4-fluorophenyl)-4-(furan-2-yl)-N-(2-methoxyethyl)-5-methyl-4,5-dihydro-1H-pyrazole-5-carboxamide], the IC50 in the assay on A549 cells, in the assay on LOX cells and in the assay with MelJuSo cells was below 0.25 µM in each case.
